In ChEMBL document CHEMBL1142674, “Amino acid ester prodrugs of the antiviral agent 2-bromo-5,6-dichloro-1-(beta-D-ribofuranosyl)benzimidazole as potential substrates of hPEPT1 transporter” (J Med Chem, 2005):
The source made the active and inactive calls. The calls are words filed in the database; no cut-off is given here.

Experiments:
Format in all cases: cell-based
[1] = target: T1, Solute carrier family 15 member 1 (Homo sapiens) (UniProt P46059); assay: Relative inhibition of [3H]glycylsarcosine uptake in HeLa cells expressing human Intestinal peptide transporter PepT1 compared to BDCRB; na=Not applicable
T1 sequence (whole entry): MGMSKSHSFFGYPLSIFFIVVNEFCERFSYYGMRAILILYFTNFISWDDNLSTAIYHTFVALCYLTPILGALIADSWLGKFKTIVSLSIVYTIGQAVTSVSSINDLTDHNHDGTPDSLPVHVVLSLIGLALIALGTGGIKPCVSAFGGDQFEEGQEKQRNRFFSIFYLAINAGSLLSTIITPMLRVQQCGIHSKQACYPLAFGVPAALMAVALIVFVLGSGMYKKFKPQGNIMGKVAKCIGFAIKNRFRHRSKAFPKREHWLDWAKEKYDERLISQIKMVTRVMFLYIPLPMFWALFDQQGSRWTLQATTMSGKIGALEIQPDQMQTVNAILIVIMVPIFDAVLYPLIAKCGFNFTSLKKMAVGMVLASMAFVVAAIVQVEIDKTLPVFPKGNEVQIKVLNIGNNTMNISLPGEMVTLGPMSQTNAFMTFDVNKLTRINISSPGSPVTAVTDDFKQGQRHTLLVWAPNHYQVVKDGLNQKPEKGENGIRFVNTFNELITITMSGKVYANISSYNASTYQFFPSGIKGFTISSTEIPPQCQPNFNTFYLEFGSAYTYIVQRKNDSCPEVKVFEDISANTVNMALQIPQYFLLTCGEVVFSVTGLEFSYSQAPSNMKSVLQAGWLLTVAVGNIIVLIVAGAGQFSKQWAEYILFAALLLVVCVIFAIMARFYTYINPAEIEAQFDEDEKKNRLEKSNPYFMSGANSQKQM

[2] = target: T1, Solute carrier family 15 member 1 (Homo sapiens); assay: Relative inhibition of [3H]glycylsarcosine uptake in HeLa cells expressing human Intestinal peptide transporter PepT1 compared to BDCRB
[3] = target: T2, Solute carrier family 15 member 1 (Homo sapiens, UniProt P46059); assay: Inhibitory concentration against [3H]glycylsarcosine uptake in HeLa cells expressing human Intestinal peptide transporter PepT1
T2 sequence (P46059 whole entry): T1 sequence (whole entry)

| SMILES | Ratio [1] | Ratio [2] | IC50 [3] [µM] |
| --- | --- | --- | --- |
| CC(C)[C@H](N)C(=O)OCCOCn1cnc2c(=O)nc(N)[nH]c21 | inactive |  |  |
| N[C@H](CC(=O)O)C(=O)OC[C@H]1OC(n2c(Br)nc3cc(Cl)c(Cl)cc32)[C@H](O)[C@@H]1O (stereo partly drawn) |  | 1.1 | 421 |
| CC(C)[C@H](N)C(=O)OC[C@H]1OC(n2c(Br)nc3cc(Cl)c(Cl)cc32)[C@H](O)[C@@H]1O (stereo partly drawn) |  | 2.7 | 166 |
| N[C@H](Cc1ccccc1)C(=O)OC[C@H]1OC(n2c(Br)nc3cc(Cl)c(Cl)cc32)[C@H](O)[C@@H]1O (stereo partly drawn) |  | 1.6 | 282 |
| O=C(OC[C@H]1OC(n2c(Br)nc3cc(Cl)c(Cl)cc32)[C@H](O)[C@@H]1O)[C@@H]1CCCN1 (stereo partly drawn) |  | 0.8 | 537 |
| CCOc1ccc(C[C@H](N)C(=O)OC[C@H]2OC(n3c(Br)nc4cc(Cl)c(Cl)cc43)[C@H](O)[C@@H]2O)cc1 (stereo partly drawn) |  | 4.7 | 96 |
| N[C@@H](Cc1ccccc1)C(=O)OC[C@H]1OC(n2c(Br)nc3cc(Cl)c(Cl)cc32)[C@H](O)[C@@H]1O (stereo partly drawn) |  | 2.1 | 218 |
| CC(C)[C@H](N)C(=O)OCCOCn1cnc2c(=O)[nH]c(N)nc21 [VALACYCLOVIR] |  |  | 431 |
| N[C@@H](CC(=O)O)C(=O)OC[C@H]1OC(n2c(Br)nc3cc(Cl)c(Cl)cc32)[C@H](O)[C@@H]1O (stereo partly drawn) |  | 1.7 | 260 |
| COc1ccc(C[C@H](N)C(=O)OC[C@H]2OC(n3c(Br)nc4cc(Cl)c(Cl)cc43)[C@H](O)[C@@H]2O)cc1 (stereo partly drawn) |  | 1.5 | 300 |
| CCC(C)[C@H](N)C(=O)OC[C@H]1O[C@@H](n2c(Br)nc3cc(Cl)c(Cl)cc32)[C@H](O)[C@@H]1O (stereo partly drawn) |  | 3.7 | 121 |
| CC(C)[C@@H](N)C(=O)OC[C@H]1OC(n2c(Br)nc3cc(Cl)c(Cl)cc32)[C@H](O)[C@@H]1O (stereo partly drawn) |  | 1.3 | 342 |
| N[C@@H](Cc1ccc(Cl)cc1)C(=O)OC[C@H]1OC(n2c(Br)nc3cc(Cl)c(Cl)cc32)[C@H](O)[C@@H]1O (stereo partly drawn) |  | 3.1 | 142 |
| OC[C@H]1O[C@H](n2c(Br)nc3cc(Cl)c(Cl)cc32)[C@@H](O)[C@H]1O | inactive |  | 447 |
| NCCCC[C@H](N)C(=O)OC[C@H]1OC(n2c(Br)nc3cc(Cl)c(Cl)cc32)[C@H](O)[C@@H]1O (stereo partly drawn) |  | 0.9 | 477 |
